The text below walks through data of paper PMC5048338, “Discovery of 4,6-disubstituted pyrimidines as potent inhibitors of the heat shock factor 1 (HSF1) stress pathway and CDK9” (Medchemcomm, 2016).

In one test the target is CDK2/cyclinE (Homo sapiens, UniProt P24941). Description: CDK2 enzyme assay: off-chip mobility shift assay. The class given is biochemical. The arrangement: purchased Upstate/Millipore. The note with it: for IC50: biochemical, CDK2/cyclinE, average of two determinations; for fold drop in potency in the CDK2 assay / fold improvement in CDK2 inhibition: relative to compound 3. The procedure: CDK2 enzyme assay: Off-chip Mobility SHIFT Assay
All reagents were purchased from Sigma-Aldrich unless otherwise specified. Inhibition of CDK2/cyclinE activity was quantified using an off-chip incubation, mobility shift assay, which uses a microfluidic chip (Caliper Life Sciences) to measure the conversion of a fluorescent peptide substrate to phosphorylated product. An Off-chip Mobility Shift Chip with 12 sippers (Caliper Life Sciences) was prepared for use according to the manufacturer’s instructions using Coating Reagent #3 (Caliper Life Sciences). The off-chip incubation was carried out in white, 384-well, flat bottom, low volume assay plates (Greiner). 5 µL peptide mix (1.5 µM substrate peptide (fluorescein-QSPKKG-CONH2, Bachem) and 90 µM ATP in kinase base buffer (50 mM HEPES, pH7.5 (Calbiochem), 0.06% CHAPSO)) were added to each well of the prepared compound plates which contained 120 nL compound stock solution per well. The reaction was then initiated by the addition of 6 µL enzyme mix (1.0 nM CDK2/cyclin E (Upstate/Millipore), 1.0 mM DTT and 5.0 mM MgCl2 in kinase base buffer). After incubation for 60 min at room temperature, each reaction was terminated by the addition of 10µL of stop solution containing 100 mM HEPES pH 7.5 (Calbiochem), 0.033% Brij-35, 0.22% Coating Reagent #3 (Caliper Life Sciences), 44 mM EDTA and 5 % DMSO. Reaction products were analysed using a Caliper LabChip LC3000 instrument and peak height was used to calculate percentage conversion of substrate to product.
For compound response testing, a 12 point compound concentration range was used. Compounds were acoustically dosed (Echo 555; Labcyte) into assay-ready plates using 11 half log intervals from 100 μM to […] plus a 12th point at 0.01 μM. Each well was backfilled with the required volume up to 120 nL of 100% DMSO to ensure a final 1% v/v DMSO concentration in the assay. In addition to the compound test wells, each plate carried maximum and minimum controls. Staurosporine at 10 μM was used to inhibit CDK2 activity for the minimum control. As a maximum control, 120 nL pure DMSO was added to the wells. Each plate contained at least 11 randomly distributed maximum and minimum controls. After the addition of compounds to the assay plates, the assay was performed as detailed above. Percentage conversion of substrate to product was used to calculate the effect of each compound on the kinase activity of CDK2/cyclinE. Enzyme inhibition model 3, non-linear curve fit analysis within OriginLab™ software was used to fit dose response curves and estimate the […]
concentration of compound required to reduce the enzyme activity to 50% of the conversion calculated from an average of the maximum controls.
Cell-based ELISA (Cellisa) for HSP72 expression
To follow HSP72 protein expression, a product of HSF1 transcriptional activity, Cellisa was developed. Cells (5-8x10^4cells/ml) were seeded into 96-well plates and incubated at 37 °C for 48 h.
Compounds were then added at a range of concentrations and incubated for 1 h before addition of 17-AAG (250 nM). Cells were then incubated for 18 h. The medium was removed and cells were fixed with fixing solution (4% paraformaldehyde, 0.3% TritonX-100 in PBS) for 30 min at 4 °C. The plates were then washed with 0.1% Tween-20/deionised water before blocking with 5% milk for 30 min at 37 °C. After washing the plates, HSP72 antibody (SPA-810, Enzo Life) was added for 1.5 h at 37 °C.
Following 4 x washes, the plates were incubated with europium-labelled anti-mouse antibody (0.6ug/ml) in Delfia assay buffer (Perkin Elmer) for 1 h at 37 °C. After washing the plates, Delfia enhancement solution was added, shaken for 10 min before reading in the Envision plate reader (Perkin-Elmer) with excitation at 340 nm and emission at 615 nm. The plates were washed again before protein determination using the BCA assay. The europium counts were normalised for the amount of protein in each well. The 50% inhibitory concentration value of the compound was then calculated and presented. […]

Another test relates to HSF1-stress pathway. Description: ArrayScan HSP72 protein assay (HSF1-stress pathway inhibition, 17-AAG induced). The note with it: for IC50: Homo sapiens, U2OS, read-out: HSF1 IC50; for fold drop in potency in the HSF1-stress pathway assay / fold increase in HSF1-stress pathway inhibition: relative to compound 3.
For the next test, the target named is T1, CDK9/cyclin T1 (Homo sapiens, UniProt P50750).
T1 construct: purchased EMD Millipore screening panel (now Eurofins)
T1 sequence (P50750 whole entry): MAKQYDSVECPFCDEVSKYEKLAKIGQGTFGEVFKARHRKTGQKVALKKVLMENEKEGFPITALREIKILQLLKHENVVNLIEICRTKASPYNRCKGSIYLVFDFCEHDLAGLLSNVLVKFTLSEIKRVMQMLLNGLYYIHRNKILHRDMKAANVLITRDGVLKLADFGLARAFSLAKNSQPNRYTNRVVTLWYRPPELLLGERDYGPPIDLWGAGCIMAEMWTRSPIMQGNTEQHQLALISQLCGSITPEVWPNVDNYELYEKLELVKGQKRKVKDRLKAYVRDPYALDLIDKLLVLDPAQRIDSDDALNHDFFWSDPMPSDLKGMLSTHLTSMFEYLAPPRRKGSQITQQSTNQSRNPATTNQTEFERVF
T1 sequence (O60563 whole entry partner): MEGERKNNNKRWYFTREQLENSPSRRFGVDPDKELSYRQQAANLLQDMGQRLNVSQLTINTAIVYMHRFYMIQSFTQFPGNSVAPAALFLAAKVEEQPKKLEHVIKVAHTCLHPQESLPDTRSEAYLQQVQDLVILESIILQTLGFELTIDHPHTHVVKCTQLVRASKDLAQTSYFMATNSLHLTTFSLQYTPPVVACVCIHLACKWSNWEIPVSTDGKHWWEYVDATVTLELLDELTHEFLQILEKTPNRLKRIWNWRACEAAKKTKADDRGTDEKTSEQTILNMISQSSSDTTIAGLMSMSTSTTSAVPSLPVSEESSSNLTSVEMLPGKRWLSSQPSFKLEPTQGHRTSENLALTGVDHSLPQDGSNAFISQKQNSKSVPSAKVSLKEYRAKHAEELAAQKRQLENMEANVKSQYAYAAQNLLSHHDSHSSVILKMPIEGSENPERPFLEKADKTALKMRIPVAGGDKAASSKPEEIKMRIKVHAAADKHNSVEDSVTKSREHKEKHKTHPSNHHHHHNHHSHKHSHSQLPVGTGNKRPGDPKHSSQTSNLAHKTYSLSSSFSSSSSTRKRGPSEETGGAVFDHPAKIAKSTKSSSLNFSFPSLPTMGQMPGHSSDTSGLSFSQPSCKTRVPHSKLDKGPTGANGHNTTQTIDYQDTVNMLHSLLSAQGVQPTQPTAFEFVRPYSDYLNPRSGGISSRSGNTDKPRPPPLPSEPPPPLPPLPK
Kind of test: EMD Millipore (Eurofins) CDK panel. Format: biochemical. The following applies: EMD Millipore screening panel, N = 1. As for the experimental part: Therefore 4,6-pyrimidine 3 was submitted to a EMD Millipore CDK panel to assess potency across the selected CDK family members (Table 3). Modest activity was observed against several CDKs; […]. […]. page 4: […]
mM Mg Acetate and […] (specific activity approx. 500 cpm/pmol, concentration as required). The reaction is initiated by the addition of the MgATP mix. After incubation for 40 minutes at room temperature, the reaction is stopped by the addition of 3% phosphoric acid solution. 10 μL of the reaction is then spotted onto a P30 filtermat and washed three times for 5 minutes in 75 mM phosphoric acid and once in methanol prior to drying and scintillation counting. […]
CDK9/cyclinT1 (h) is incubated with 8 mM MOPS pH 7.0, 0.2 mM EDTA, 100 μM […]
, 10 mM MgAcetate and […]
(specific activity approx. 500 cpm/pmol, concentration as required). The reaction is initiated by the addition of the MgATP mix. After incubation for 40 minutes at room temperature, the reaction is stopped by the addition of 3% phosphoric acid solution. 10 μL of the reaction is then spotted onto a P30 filtermat and washed three times for 5 minutes in 75 mM phosphoric acid and once in methanol prior to drying and scintillation counting. […]

The subject of a further test is U2OS cells. Description: SRB cell growth inhibition assay. Format: cell-based. The note with it: Homo sapiens, 96 h, read-out: SRB GI50.
Test [1] deals with CDK9/CyclinT1. Kind of test: Adapta screen assay, Life Technologies. The note with it: ratio between CDK2/7/9, below limit of assay detection.
Test [2] concerns HSF1-mediated HSP72 induction. Description: Cell-based ELISA (Cellisa) for HSP72 expression. The note with it: Homo sapiens, U2OS, read-out: HSF1 IC50 (cell-ELISA, HSP72 induction inhibition). For orientation: An ELISA detects its analyte on a solid surface through an enzyme-linked reagent.
In another test the test system is CDK7/CyclinH/MAT1. The note with it: ratio between CDK2/7/9; ref Yin et al., Mol. Cancer Ther., 2014, 13, 1442-1456; cited from earlier work.
Test [3] relates to CDK9/CyclinT1. The note with it: ratio between CDK2/7/9; ref Yin et al., Mol. Cancer Ther., 2014, 13, 1442-1456; cited from earlier work.

Where two headings read alike, the source gives them in different places.

Procedure for HSF1-stress pathway: To discover inhibitors of the HSF1-stress pathway, we employed an automated cellular imaging and analysis method (ArrayScan™) that quantifies the ability of a compound to suppress the expression of the HSF1-mediated inducible HSP70 isoform, HSP72.
U2OS cells (1500 per well) were plated in 40 μL of DMEM media (containing 10% fetal calf serum and 2 mM Glutamax T-1) in costar 384-well plates and left overnight at 37 °C and 5% CO2 to adhere.
treatment with compound, all wells except min wells were dosed with 17AAG diluted in DMSO (10
°C and 5% CO2. The following day the cells were fixed by addition of 20 μL/well of 12% formaldehyde with 1:1700 Hoechst in PBS for 10 min at room temperature. The fixative was decanted and the wells washed once with 50 μL of phosphate buffer saline (PBS).The PBS was subsequently aspirated, and the cells were permeabilized by addition of 20 μL/well of PBS 0.3% Triton X-100 for 20 min at room temperature. The wells were then washed with 80 μL of PBS prior to the addition of 20 μL of combined primary and secondary antibodies diluted in PBS (1:10 000 mouse anti-Hsp72
11001 molecular probes), for 2 h at room temperature. The wells were then washed with 50 μL of PBS. Finally, 50 μL of PBS was added to each well, and the plates were sealed ready to analyze.
Analysis was carried out using a Cellomics Arrayscan VTI instrument and the Cellomics Arrayscan Compartmental Analysis algorithm to measure cellular levels of HSP72.
100 μM to 0.1 μM plus a 12th point at 0.01 μM. Each well was backfilled with the required volume up to 120 nL of 100% DMSO to ensure a final 1% v/v DMSO concentration in the assay. In addition to the compound test wells, each plate carried maximum and minimum controls. Staurosporine at 10 μM was used to inhibit CDK2 activity for the minimum control. As a maximum control, 120 nL pure DMSO was added to the wells. Each plate contained at least 11 randomly distributed maximum and minimum controls. After the addition of compounds to the assay plates, the assay was performed as detailed above. Percentage conversion of substrate to product was used to calculate the effect of each compound on the kinase activity of CDK2/cyclinE. Enzyme inhibition model 3, non-linear curve fit analysis within OriginLab™ software was used to fit dose response curves and estimate the

What is called IC50 is the concentration at which inhibition is half-maximal. With `OCCc1ccc(Nc2cc(-n3cnc4ccccc43)ncn2)cc1` [Compound 1], the figures for the IC50 at CDK2/cyclinE and in the test with HSF1-stress pathway were 1140 nM and 2000 nM, respectively.

As for `CN(C)CCOc1ccc(Nc2cc(-n3cnc4ccccc43)ncn2)cc1` [Compound 2], the concentration for half-maximal inhibition (IC50) was 20000 nM on CDK2/cyclinE and 1350 nM in the test on HSF1-stress pathway. For the same molecule, the “fold difference in activity between the CDK2 and HSF1-stress pathway assays” value in the test with HSF1-stress pathway (CDK2 IC50 versus HSF1 IC50) is given as 15 fold.

On to `CN(C)CCCOc1ccc(Nc2cc(-n3cnc4ccccc43)ncn2)nc1` [Compound 4], for which the figures for the IC50 at CDK2/cyclinE and with HSF1-stress pathway were 368 nM and 165 nM, respectively.

For `CN(C)CCOc1ccc(Nc2cc(-n3ccnc3)ncn2)nc1` [Compound 6], inhibition on CDK9/cyclin T1 was half-maximal at 88 nM (IC50). In addition, at CDK2/cyclinE, the concentration for half-maximal inhibition (IC50) worked out at 7100 nM and the “fold drop in potency in the CDK2 assay” value came out at 12 fold. Also, in the test with HSF1-stress pathway, the IC50 came to 6150 nM and the “fold drop in potency in the HSF1-stress pathway assay” value turned out to be 77 fold.

Regarding `CN(C)CCOc1ccc(Nc2cc(-n3ncc4ccccc43)ncn2)nc1` [Compound 7], the IC50 at CDK2/cyclinE is 29800 nM; with HSF1-stress pathway, over 30000 nM.

For the molecule `CN(C)CCOc1ccc(Nc2cc(-n3ccc4ccccc43)ncn2)nc1` [Compound 8], the IC50 on CDK2/cyclinE turned out to be 4430 nM; in the test on HSF1-stress pathway, 2330 nM.

With `CN(C)CCOc1ccc(Nc2cc(-c3cnc4ccccc4c3)ncn2)nc1` [Compound 9], the IC50 on CDK2/cyclinE is over 100000 nM. For the same molecule, the “activity in the CDK2 assay” value on CDK2/cyclinE (compared to benzimidazole 3) was “inactive”. In addition, in the test on HSF1-stress pathway, the IC50 turned out to be 17600 nM and the “fold drop in potency in the HSF1-stress pathway assay” value is recorded as about 200 fold.

Regarding `CN(C)CCOc1ccc(Nc2cc(-n3cnc4cccnc43)ncn2)nc1` [Compound 10], the IC50 is 1600 nM at CDK2/cyclinE and 760 nM in the test on HSF1-stress pathway.

As to `CN(C)CCOc1ccc(Nc2cc(-n3cnc4ncccc43)ncn2)nc1` [Compound 11], on CDK2/cyclinE, the IC50 was 161 nM and the “fold improvement in CDK2 inhibition” value is listed as 5 fold. Moreover, in the test with HSF1-stress pathway, the IC50 was found to be 28 nM and the “fold increase in HSF1-stress pathway inhibition” value is 3 fold.

With `Cc1ccc2ncn(-c3cc(Nc4ccc(OCCN(C)C)cn4)ncn3)c2c1` [Compound 12], the IC50 was 121 nM on CDK2/cyclinE and 39 nM in the test on HSF1-stress pathway.

For the molecule `Cc1nc2ccccc2n1-c1cc(Nc2ccc(OCCN(C)C)cn2)ncn1` [Compound 13], on CDK2/cyclinE, the IC50 was 4610 nM and the “fold drop in potency in the CDK2 assay” value was over 7 fold. Besides, in the test with HSF1-stress pathway, the IC50 came out at 4280 nM and the “fold drop in potency in the HSF1-stress pathway assay” value is over 7 fold.

As for `c1ccc(Nc2cc(-n3cnc4ccccc43)ncn2)nc1` [Compound 14], on CDK2/cyclinE, the half-inhibitory concentration (IC50) worked out at 59 nM and the “fold improvement in CDK2 inhibition” value is given as 10 fold. In the test on HSF1-stress pathway, the IC50 turned out to be 842 nM and the “fold drop in potency in the HSF1-stress pathway assay” value is 10 fold.

Take `CN(C)CCCc1ccc(Nc2cc(-n3cnc4ccccc43)ncn2)nc1` [Compound 15]: the IC50 at CDK2/cyclinE was 690 nM; in the test on HSF1-stress pathway, 198 nM.

As for `CN1CCC[C@H]1COc1ccc(Nc2cc(-n3cnc4ccccc43)ncn2)nc1` [Compound 16], at CDK2/cyclinE, the IC50 worked out at 535 nM.

Take `CN1CCC[C@@H]1COc1ccc(Nc2cc(-n3cnc4ccccc43)ncn2)nc1` [Compound 17]: the IC50 at CDK9/cyclin T1 turned out to be 8 nM; at CDK2/cyclinE it was 492 nM.

Consider `c1ccc2c(c1)ncn2-c1cc(Nc2ccc(OCCN3CCOCC3)cn2)ncn1` [Compound 18], for which the IC50 at CDK2/cyclinE came out at 554 nM; in the test on HSF1-stress pathway, 295 nM.

In the case of `c1ccc2c(c1)ncn2-c1cc(Nc2ccc(OCCN3CCCCC3)cn2)ncn1` [Compound 19], the IC50 at CDK9/cyclin T1 was 8 nM; at CDK2/cyclinE, 358 nM; in the test with HSF1-stress pathway, 57 nM. For the same molecule, in the test with HSF1-stress pathway, the “fold increase in HSF1-stress pathway inhibition” value is on record as 2 fold.

As to `CN1CCC(Oc2ccc(Nc3cc(-n4cnc5ccccc54)ncn3)nc2)CC1` [Compound 20], the IC50 at CDK2/cyclinE turned out to be 1240 nM; in the test on HSF1-stress pathway, 884 nM.

`CN1CCN(c2ccc(Nc3cc(-n4cnc5ccccc54)ncn3)nc2)CC1` [Compound 21]: the figures for the IC50 against CDK9/cyclin T1, at CDK2/cyclinE and in the test on HSF1-stress pathway were 22 nM, 643 nM and 450 nM, respectively.

As for `C[C@H]1CN(C)CCN1c1ccc(Nc2cc(-n3cnc4ccccc43)ncn2)nc1` [Compound 22], the IC50 on CDK2/cyclinE turned out to be 836 nM; with HSF1-stress pathway, 1380 nM.

For the molecule `CN(C)C1CCN(c2ccc(Nc3cc(-n4cnc5ccccc54)ncn3)nc2)CC1` [Compound 23], the figures for the IC50 at CDK2/cyclinE and with HSF1-stress pathway were 776 nM and 610 nM, respectively.

For `CN1CCC[C@H]1COc1ccc(Nc2cc(-n3cnc4ncccc43)ncn2)nc1` [Compound 24], the IC50 on CDK2/cyclinE is 146 nM.

Broadly, the GI50 is the concentration at which growth is held to half of that of the control. Regarding `c1cnc2ncn(-c3cc(Nc4ccc(OCCN5CCCCC5)cn4)ncn3)c2c1` [Compound 25], the GI50 in the test on U2OS cells (U2OS cells, single agent, average of two determinations) was 5 nM. Besides, the IC50 on CDK2/cyclinE came out at 55 nM; in test [2], 15 nM; in the test with HSF1-stress pathway, 15 nM. The “ratio of activity CDK9/CyclinT1” value in the test on CDK9/CyclinT1 [1] is on record as 1.

Take `CC(C)c1c2cc(-c3ccnc(NC4CCC(NC5CCOCC5)CC4)n3)ccc2nn1C` (stereo not drawn) [LY2857785]: the ratio of activity CDK7/CyclinH/MAT1 with CDK7/CyclinH/MAT1 is 22. In addition, the ratio of activity CDK9/CyclinT1 in the test on CDK9/CyclinT1 [3] was 1.

Turning to `CC(C)(C)c1cnc(CSc2cnc(NC(=O)C3CCNCC3)s2)o1` [SNS-032, reference compound], the GI50 in the test on U2OS cells (U2OS) was 370 nM. The IC50 in test [2] worked out at 750 nM.
